Values after ≈ are worked out from the molar mass of the structure shown.
How the values were obtained:
Assay type in all cases: cell-based
[1] = tested on: Escherichia coli ATC-25922; assay: MIC, broth microdilution; conditions: ATC25922
Text: As used herein, the term “MIC” refers to minimum inhibitory concentrations. Minimum inhibitory concentrations may be determined by broth microdilution according to the Clinical and Laboratory Standards Institute guidelines (see, e.g., […]-A8. Methods for dilution antimicrobial susceptibility tests for bacteria that grow aerobically: approved standard, 8th Ed.; […] One example for measuring minimum inhibitory concentrations may be found in Reck et al., 2012, J. Med. Chem. 55:6916-6933, the disclosure of which is incorporated by reference. Inoculants may be incubated on blood agar plates for 18 to 24 hours. Incubation may occur at a temperature from about 35° C. to about 37° C. […] In serum supplemented experiments, the testing medium (e.g., DMSO solution) and human serum may be mixed. The ratio of testing medium to human serum may be 1:1 (vol:vol). Plates may be read by spectrophotometry at 620 nm. Unless indicated otherwise, all inhibitory concentrations recited in the specification relate to MICs. The MIC tests were based on broth microdilution method in CLSI-M7. […] Solutions of varying concentrations of DMSO were prepared in wells of a v-bottom 96-well plate (Axygen-WIPP02280). A multi-pipette was used to perform serial dilutions as necessary. From well to well, the drug concentrations were 6.4, 3.2, 1.6, 0.8, 0.4, 0.2, 0.1, 0.05, 0.025, 0.0125, 0.00625 and 0 mg/ml in DMSO. For extremely potent antibiotic, the starting concentrations were adjusted accordingly. This was the drug mother plate. Daughter plates were prepared by placing 98 μl of a testing medium into each well of a u-bottom 96-well plate (Costar 3788). An aliquot of each 2 μl solution from each well of the mother plate was then transferred into the corresponding wells of the daughter plate using a multi-pipette work station (CyBi®-SELMA). Testing media were selected based on CLSI-M7, M11 and […]. Cation adjusted Mueller Hinton Broth (CA-MHB-212322) was the testing medium for majority of bacterial species. […] The MIC values were determined and based on the standards of CLSI methods M7-A7, broth microdilution method. […]

[2] = tested on: Klebsiella pneumonia ATCC-43816; assay: MIC (50% NHS); conditions: Klebsiella pneumoniae, ATCC43816; Klebsiella pneumonia ATCC-43816, 50% NHS
[3] = tested on: Klebsiella pneumonia ATCC-700603; assay: MIC (50% NHS); conditions: Klebsiella pneumoniae, ATCC700603; Klebsiella pneumonia ATCC-700603, 50% NHS
[4] = tested on: Acinetobacter baumannii ATCC 17978; assay: MIC (50% NHS); conditions: ATCC17978; Acinetobacter baumannii ATCC 17978, 50% NHS
[5] = tested on: Enterobacter cloacae ATCC-BAA-1143; assay: MIC (50% NHS); conditions: ATCCBAA1143; Enterobacter cloacae ATCC-BAA-1143, 50% NHS
[6] = tested on: Enterococcus faecalis ATCC-29212; assay: MIC (50% NHS); conditions: ATCC29212; Enterococcus faecalis ATCC-29212, 50% NHS
[7] = tested on: Staphylococcus aureus ATCC-29213; assay: MIC (50% NHS); conditions: ATCC29213; Staphylococcus aureus ATCC-29213, 50% NHS
[8] = tested on: Staphylococcus aureus NRS-100; assay: MIC (50% NHS); conditions: NRS100; Staphylococcus aureus NRS-100, 50% NHS
[9] = tested on: Staphylococcus aureus WX1-009; assay: MIC (50% NHS); conditions: WX1009; Staphylococcus aureus WX1-009, 50% NHS

| Structure (SMILES) | MIC [1] [µg/mL] | MIC [2] [µg/mL] | MIC [3] [µg/mL] | MIC [4] [µg/mL] | MIC [5] [µg/mL] | MIC [6] [µg/mL] | MIC [7] [µg/mL] | MIC [8] [µg/mL] | MIC [9] [µg/mL] |
| --- | --- | --- | --- | --- | --- | --- | --- | --- | --- |
| CN1CC2CN(C(=O)Nc3cc(F)cc(F)c3)CC(C1)C2(O)c1ccc(-c2ccc(CN)cc2C#N)cn1 [Compound 24, (1R,5S,9r)-9-(5-(4-(aminomethyl)-2-cyanophenyl)pyridin-2-yl)-N-(3,5-difluorophenyl)-9-hydroxy-7-methyl-3,7-diazabicyclo[3.3.1]nonane-3-carboxamide] | 2 (≈ 3.86 µM) | 4 (≈ 7.71 µM) | 16 (≈ 30.9 µM) | 64 (≈ 123 µM) | 2 (≈ 3.86 µM) | 1 (≈ 1.93 µM) | 0.25 (≈ 0.482 µM) | 0.25 (≈ 0.482 µM) | 0.25 (≈ 0.482 µM) |
| CN1CC2CN(C(=O)Nc3cc(F)cc(F)c3)CC(C1)C2(O)c1ccc(-c2ccc(CN)cc2C#N)cc1 [Compound 23, (1R,5S,9r)-9-(4′-(aminomethyl)-2′-cyano-[1,1′-biphenyl]-4-yl)-N-(3,5-difluorophenyl)-9-hydroxy-7-methyl-3,7-diazabicyclo[3.3.1]nonane-3-carboxamide] | 2 (≈ 3.86 µM) | 2 (≈ 3.86 µM) | 8 (≈ 15.5 µM) | 64 (≈ 124 µM) | 2 (≈ 3.86 µM) | 0.5 (≈ 0.966 µM) | 0.13 (≈ 0.251 µM) | 0.13 (≈ 0.251 µM) | ≤ 0.06 |
| CNCc1ccc(-c2ccc(C3(O)C4CN(C)CC3CN(C(=O)Nc3cc(F)cc(F)c3)C4)nc2)c(C#N)c1 [Compound 17, (1R,5S,9r)-9-(5-(2-cyano-4-((methylamino)methyl)phenyl)pyridin-2-yl)-N-(3,5-difluorophenyl)-9-hydroxy-7-methyl-3,7-diazabicyclo[3.3.1]nonane-3-carboxamide] | 4 (≈ 7.51 µM) | 1.78 (≈ 3.34 µM) | 7.12 (≈ 13.4 µM) | 28.5 (≈ 53.5 µM) | 3.56 (≈ 6.68 µM) | 0.45 (≈ 0.845 µM) | ≤ 0.11 | 0.22 (≈ 0.413 µM) | ≤ 0.11 |

Reference: patent US10654852B2, “Antibiotics and methods of using same” (THE BROAD INSTITUTE, INC., priority 2016, dated 2020)
